# Molecular target: T1, human ghrelin receptor (Homo sapiens, UniProt Q92847)
# T1 construct: expressed in transfected cells
# Experiment: Ghrelin receptor agonistic activity induced Ca2+ influx in HEK293 cells stably expressing human ghrelin receptor
# Assay type: cell-based
# Conditions: Ca2+ influx (Fluo-4, FDSS6000), 11-point dose-response
# Procedure: Measurement of the Ghrelin Receptor Agonistic Activity Induced Ca^2+ Influx in HEK293 Cells Stably Expressing Human Ghrelin Receptor
# HEK293 cells stably expressing human ghrelin receptor were maintained in Dulbecco's modified Eagle medium (high glucose) supplemented with 10% fetal bovine serum, 100 units/ml penicillin, 100 microg/ml streptomycin and 500 microg/ml G418 at 37° C. in a humidified incubator with 5% CO2 and grown to 60-80% confluence. The day before the assay, the cells were seeded on poly-D-lysine coated 384-well plates (BD FALCON) at a density of 10,000 cells per well, and incubated overnight in incubator.
# On the day of the assay, the cells were washed three times with assay buffer (Hanks' balanced salt solution with 20 mM HEPES, pH7.4), and were incubated for 1 hour at room temperature to load 0.5 microM Fluo-4 AM reagent (Invitrogen).
# After removing Fluo-4, and washing with assay buffer, the cells were added with various concentrations of the compounds. The changes in intracellular calcium concentration were monitored with the fluorescence imaging plate reader, FDSS6000 (Hamamatsu Photonics).
# The EC50 values for compounds of the present invention were determined from 11-point dose-response studies. Curves were generated using the average of duplicate wells for each data point. Finally, the EC50 values were calculated using the best-fit dose curve determined by XLfit (ID Business Solutions Ltd).
# T1 sequence (Q92847 whole entry): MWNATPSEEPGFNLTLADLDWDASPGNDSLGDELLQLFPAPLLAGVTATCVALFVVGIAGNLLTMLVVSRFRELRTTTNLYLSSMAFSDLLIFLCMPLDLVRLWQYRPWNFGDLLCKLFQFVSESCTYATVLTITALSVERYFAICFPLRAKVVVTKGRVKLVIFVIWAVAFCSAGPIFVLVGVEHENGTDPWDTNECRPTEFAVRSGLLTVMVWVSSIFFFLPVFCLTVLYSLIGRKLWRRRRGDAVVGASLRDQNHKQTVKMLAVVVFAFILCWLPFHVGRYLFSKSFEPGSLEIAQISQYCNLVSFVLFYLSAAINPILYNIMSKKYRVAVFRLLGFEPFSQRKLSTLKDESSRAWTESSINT
row,Compound,EC50
1,"CN1N=C2CCN(C(=O)[C@@H](COc3cc(C(F)(F)F)cc(C(F)(F)F)c3)NC(=O)C(C)(C)N)C[C@@]2(Cc2ccccc2)C1=O [Example 9, 2-amino-N—((R)-1-((R)-3a-benzyl-2-methyl-3-oxo-3a,4,6,7-tetrahydro-2H-pyrazolo[4,3-c]pyridin-5(3H)-yl)-3-(3,5-bis(trifluoromethyl)phenoxy)-1-oxopropan-2-yl)-2-methylpropanamide]",< 10 nM
2,"CN1N=C2CCN(C(=O)[C@@H](COc3ccccn3)NC(=O)C(C)(C)N)C[C@@]2(Cc2ccccc2)C1=O [Example 17, 2-amino-N—((R)-1-((R)-3a-benzyl-2-methyl-3-oxo-3a,4,6,7-tetrahydro-2H-pyrazolo[4,3-c]pyridin-5(3H)-yl)-1-oxo-3-(pyridin-2-yloxy)propan-2-yl)-2-methylpropanamide]",< 10 nM
3,"CN1N=C2CCN(C(=O)[C@@H](COc3cncc(F)c3)NC(=O)C(C)(C)N)C[C@@]2(Cc2ccccc2)C1=O [Example 18, 2-amino-N—((R)-1-((R)-3a-benzyl-2-methyl-3-oxo-3a,4,6,7-tetrahydro-2H-pyrazolo[4,3-c]pyridin-5(3H)-yl)-3-((5-fluoropyridin-3-yl)oxy)-1-oxopropan-2-yl)-2-methylpropanamide]",< 10 nM
4,"CN1N=C2CCN(C(=O)[C@@H](COc3ccc(C#N)cc3)NC(=O)C(C)(C)N)C[C@@]2(Cc2ccccc2)C1=O [Example 20, 2-amino-N—((R)-1-((R)-3a-benzyl-2-methyl-3-oxo-3a,4,6,7-tetrahydro-2H-pyrazolo[4,3-c]pyridin-5(3H)-yl)-3-(4-cyanophenoxy)-1-oxopropan-2-yl)-2-methylpropanamide]",< 10 nM

# — patent US9873695B2, “Serine derivatives as ghrelin receptor agonists” (RaQualia Pharma Inc., priority 2014, dated 2018)
